# Measured values taken from paper PMC3675820 (Molecular & Cellular Proteomics : MCP, 2013).
# Legend:
# Details in all cases: 500 μM ATPγS vs none; normal (aerated) culture lysate; competitive
# [1] = target: Polyphosphate kinase, Ppk (Mycobacterium tuberculosis, UniProt P9WHV9)
# [2] = target: Phosphoglycerate kinase, Pgk (Mycobacterium tuberculosis, UniProt P9WID1)
# [3] = target: ATP-dependent protease ATP-binding subunit, ClpC1 (Mycobacterium tuberculosis, UniProt P9WPC9)
# Adenylate kinase, Adk = Adenylate kinase, Adk (Mycobacterium tuberculosis, UniProt P9WKF5)
# Chain of Adenylate kinase, Adk (P9WKF5 whole entry): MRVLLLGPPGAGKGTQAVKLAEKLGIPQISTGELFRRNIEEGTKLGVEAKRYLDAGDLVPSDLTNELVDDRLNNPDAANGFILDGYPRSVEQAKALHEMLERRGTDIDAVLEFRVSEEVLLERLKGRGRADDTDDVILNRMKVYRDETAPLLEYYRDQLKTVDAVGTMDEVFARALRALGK
# Universal stress protein = Universal stress protein (Mycobacterium tuberculosis, UniProt P9WLB5)
# Chain of Universal stress protein (P9WLB5 whole entry): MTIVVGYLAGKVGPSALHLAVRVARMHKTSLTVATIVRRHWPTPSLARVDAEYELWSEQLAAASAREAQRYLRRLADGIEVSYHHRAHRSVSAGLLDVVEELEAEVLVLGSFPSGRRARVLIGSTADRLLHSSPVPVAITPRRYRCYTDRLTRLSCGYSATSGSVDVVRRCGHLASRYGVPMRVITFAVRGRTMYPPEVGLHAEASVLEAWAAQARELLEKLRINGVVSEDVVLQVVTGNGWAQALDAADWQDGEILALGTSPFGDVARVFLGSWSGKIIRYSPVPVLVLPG
# Chain of Polyphosphate kinase, Ppk (P9WHV9 whole entry): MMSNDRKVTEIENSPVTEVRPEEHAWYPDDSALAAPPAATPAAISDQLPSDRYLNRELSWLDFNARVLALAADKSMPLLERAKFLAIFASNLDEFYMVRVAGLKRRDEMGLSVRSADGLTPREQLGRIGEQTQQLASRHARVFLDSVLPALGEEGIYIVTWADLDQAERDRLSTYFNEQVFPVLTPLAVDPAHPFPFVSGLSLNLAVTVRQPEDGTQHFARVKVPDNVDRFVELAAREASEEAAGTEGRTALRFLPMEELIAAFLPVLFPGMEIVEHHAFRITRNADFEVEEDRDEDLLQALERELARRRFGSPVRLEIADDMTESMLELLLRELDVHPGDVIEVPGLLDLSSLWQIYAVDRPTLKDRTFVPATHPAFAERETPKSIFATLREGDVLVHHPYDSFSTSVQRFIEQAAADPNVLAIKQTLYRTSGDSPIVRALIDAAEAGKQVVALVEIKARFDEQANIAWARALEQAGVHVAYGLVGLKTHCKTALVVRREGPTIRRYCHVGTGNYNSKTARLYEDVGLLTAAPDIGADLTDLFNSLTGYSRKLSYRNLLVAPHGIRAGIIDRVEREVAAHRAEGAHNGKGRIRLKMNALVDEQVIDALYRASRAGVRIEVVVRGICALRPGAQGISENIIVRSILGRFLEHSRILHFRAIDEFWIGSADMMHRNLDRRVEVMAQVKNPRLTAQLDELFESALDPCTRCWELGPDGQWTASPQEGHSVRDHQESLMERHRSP
# Chain of ATP-dependent protease ATP-binding subunit, ClpC1 (P9WPC9 whole entry): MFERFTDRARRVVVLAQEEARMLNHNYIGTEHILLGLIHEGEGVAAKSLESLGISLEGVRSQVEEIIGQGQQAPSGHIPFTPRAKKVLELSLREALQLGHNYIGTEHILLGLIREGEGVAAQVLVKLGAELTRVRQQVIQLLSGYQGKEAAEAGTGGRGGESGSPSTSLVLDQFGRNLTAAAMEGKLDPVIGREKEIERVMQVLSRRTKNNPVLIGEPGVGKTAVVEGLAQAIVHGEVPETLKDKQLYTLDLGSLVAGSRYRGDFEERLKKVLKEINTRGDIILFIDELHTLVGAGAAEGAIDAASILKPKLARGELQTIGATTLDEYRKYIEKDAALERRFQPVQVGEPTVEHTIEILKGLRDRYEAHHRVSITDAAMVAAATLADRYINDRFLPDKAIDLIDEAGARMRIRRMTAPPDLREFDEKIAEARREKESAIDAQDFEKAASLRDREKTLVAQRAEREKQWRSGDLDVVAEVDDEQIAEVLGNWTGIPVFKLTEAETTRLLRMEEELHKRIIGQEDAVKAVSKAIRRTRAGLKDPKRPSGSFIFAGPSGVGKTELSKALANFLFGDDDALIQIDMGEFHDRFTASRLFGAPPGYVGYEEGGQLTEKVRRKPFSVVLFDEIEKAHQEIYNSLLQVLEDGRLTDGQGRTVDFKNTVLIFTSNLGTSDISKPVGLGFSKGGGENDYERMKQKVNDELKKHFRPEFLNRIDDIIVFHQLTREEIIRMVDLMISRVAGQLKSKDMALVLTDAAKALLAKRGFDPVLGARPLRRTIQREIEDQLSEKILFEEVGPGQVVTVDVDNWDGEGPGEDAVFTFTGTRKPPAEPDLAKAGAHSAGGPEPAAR
# Chain of Phosphoglycerate kinase, Pgk (P9WID1 whole entry): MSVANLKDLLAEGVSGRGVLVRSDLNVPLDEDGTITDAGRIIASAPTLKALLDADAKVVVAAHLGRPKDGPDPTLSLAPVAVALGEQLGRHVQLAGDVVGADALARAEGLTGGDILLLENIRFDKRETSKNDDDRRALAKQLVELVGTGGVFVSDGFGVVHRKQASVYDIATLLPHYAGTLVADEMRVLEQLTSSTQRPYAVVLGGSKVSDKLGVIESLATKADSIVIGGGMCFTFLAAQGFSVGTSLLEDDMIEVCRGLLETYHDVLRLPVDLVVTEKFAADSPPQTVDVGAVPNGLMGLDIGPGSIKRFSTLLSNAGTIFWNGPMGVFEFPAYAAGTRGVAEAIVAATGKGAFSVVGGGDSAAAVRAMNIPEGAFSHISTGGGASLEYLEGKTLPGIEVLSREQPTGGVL
structure (smiles),measurement,setting,value
"Nc1ncnc2c1ncn2[C@@H]1O[C@H](COP(=O)(O)OP(=O)(O)OP(O)(O)=S)[C@@H](O)[C@H]1O [ATPγS, adenosine 5′-[γ-thio]triphosphate tetralithium]",Fold change,[1],6.80 fold
same,Fold change,[2],6.56 fold
same,Fold change,[3],3.98 fold
same,Fold change,"Adenylate kinase, Adk",2.12 fold
same,Fold change,Universal stress protein,4.75 fold
